The values below come from US20190078143A1, “METHOD FOR TREATING NEURODEVELOPMENTAL DISORDERS” (New York University, priority 2017, published 2019).

Assay [1] concerns segmented filamentous bacteria (SFB). The experiment in a line: 16S rRNA qPCR of SFB levels in mouse fecal samples. The class given is in vivo. To be noted: B6 mice before/after vancomycin treatment. On the procedure: (§1) For co-housing experiments, age-matched SFB-absent mice (from Jackson Laboratory) were co-housed with SFB-present mice (from Taconic Biosciences) in sterilized cages for two weeks at a ratio of 2:3, with unrestricted access to food and water. For SFB-gavaging experiments, four fecal pellets of SFB mono-colonized mice (provided by Dan Littman) were dissolved in 20 ml sterile PBS and filtered through a 100 μm cell strainer. 200 μl of fecal suspensions were gavaged via oral route to 4 week-old female Jackson mice. Control mice were gavaged with PBS. The SFB colonization was tested on day 7 following co-housing or SFB-gavaging. For ablation of intestinal bacteria, Taconic-derived female mice were orally gavaged with vancomycin hydrochloride (Fisher) (2.5 mg/kg) every two days, starting 7 days prior to breeding. Mouse fecal pellets were collected and stored at −80° C. before and after vancomycin treatments.
Bacterial genomic DNA was isolated from the fecal pellets of mice with phenol-chloroform extraction. qPCR was performed to quantify relative abundance of SFB, human commensal bacteria or total bacteria using group specific 16S rDNA primers (Table 3, FIG. 16). Undetected qPCR values from non-colonized samples were replaced with a Ct value of 40 for the purpose of comparison.

For a further assay, the system named is IL-17a. The experiment in a line: Maternal plasma IL-17a ELISA after poly(I:C) at E12.5. It counts as in vivo, mouse. Particulars: poly(I:C)-injected pregnant dams, 48 hrs after poly(I:C) at E12.5, compared to control group. Here is the method: (§2) Mice were mated overnight and females were checked daily for the presence of seminal plugs, noted as embryonic day 0.5. On E12.5, pregnant female mice were weighed and injected with a single dose (20 mg/kg; i.p.) of poly(I:C) (Sigma Aldrich) or PBS vehicle. Each dam was returned to its cage and left undisturbed until the birth of its litter. All pups remained with the mother until weaning on postnatal day 21-28 (P21-P28), at which time mice were group housed at a maximum of 5 per cage with same-sex littermates.
as §1, with “For ablation of intestinal bacteria, Taconic-derived female mice were orally gavaged with vancomycin hydrochloride (Fisher) (2.5 mg/kg) every two days, starting 7 days prior to breeding. Mouse fecal pellets were collected and stored at −80° C. before and after vancomycin treatments.” left out
IL-17a, TNF-α, IFN-β, IL-1β and IL-23 levels were measured according to the manufacturer's protocol (BioLegend). IL-6 and IFN-γ levels were measured according to the manufacturer's protocol (eBioscience).

The subject of assay [2] is cortical patches (SATB2) in primary somatosensory cortex. The experiment in a line: Cortical patches by SATB2 immunohistochemistry in adult MIA offspring brains. Particulars: offspring of poly(I:C)-injected mothers pre-treated with vancomycin. The class given is in vivo, mouse. Here is the method:
as §2
For co-housing experiments, age-matched SFB-absent mice (from Jackson Laboratory) were co-housed with SFB-present mice (from Taconic Biosciences) in sterilized cages for two weeks at a ratio of 2:3, with unrestricted access to food and water. For SFB-gavaging experiments, four fecal pellets of SFB mono-colonized mice (provided by Dan Littman) were dissolved in 20 ml sterile PBS and filtered through a 100 μm cell strainer. […]
Adult male mice were perfused and fixed with 4% paraformaldehyde in PBS for overnight at 4° C. […] The cortical malformation images were analyzed using Image J software. […]
Cortical patches were identified as cortical regions devoid of SATB2 expression. The size of the cortical patches in the S1 was calculated using Zen software (Carl Zeiss). […] SATB2 positive cells were quantified manually.

In assay [3] the test system is Th17 cells in the small intestine. The experiment in a line: Flow cytometry of ileal CD4+ T cells for IL-17a and RORγt in poly(I:C)-treated dams. It counts as in vivo, mouse. To be noted: poly(I:C)-injected pregnant dams, E14.5, compared to control group. Here is the method: as §1
For mononuclear cell isolations, both mesenteric fat tissues and Peyer's patches were carefully removed from intestinal tissues. […]
Mononuclear cells were incubated with or without 50 ng/ml phorbol myristate acetate (PMA) (Sigma) and 500 ng/ml ionomycin (Sigma) in the presence of GolgiStop (BD) in complete T cell media at 37° C. for 5 h. […] All data were re-analyzed using FlowJo (Tree Star).

The subject of the next assay is MIA offspring. The experiment in a line: Behavioral assays (USV, marble burying, open field, three-chamber sociability) in offspring of poly(I:C)-injected dams. It counts as in vivo, mouse. To be noted: poly(I:C)-injected mothers pre-treated with vancomycin, oral gavage every two days from 7 days before breeding. On the procedure:
Mice were mated overnight and females were checked daily for the presence of seminal plugs, noted as embryonic day 0.5. On E12.5, pregnant female mice were weighed and injected with a single dose (20 mg/kg; i.p.) of poly(I:C) (Sigma Aldrich) or PBS vehicle. Each dam was returned to its cage and left undisturbed until the birth of its litter. All pups remained with the mother until weaning on postnatal day 21-28 (P21-P28), at which time mice were group housed at a maximum of 5 per cage with same-sex littermates. […]
On P9, both male and female offspring mice were removed from the nest and habituated to the testing room for 30 min. […] Ultrasonic vocalizations (USVs) were detected for 3 min using an UltraSoundGateCM16/CMPA microphone (AviSoft) in the sound attenuation chamber under stable temperature and light control, and recorded with SAS Prolab software (AviSoft). USVs were measured between 33-125 kHz using Ultravox software (Noldus Information Technology, USA). Due to the unreliability of automated USV scoring, all pup USV calls were counted manually and plotted on the y-axis. […]
8-12-week-old male mice were tested for social behavior using the three-chamber social approach paradigm. […] Experimental mice were given 10 min to explore both chambers and measured for approach behavior as interaction time (i.e. sniffing, approach) with targets in each chamber (within 2 cm). […]

In assay [4] the test system is segmented filamentous bacteria (SFB). Particulars: commensal bacteria in laboratory mice, general statement; cited from earlier work.

Entries after “also recorded” stand apart in the source; their conditions may differ.

`CN[C@H](CC(C)C)C(=O)N[C@H]1C(=O)N[C@@H](CC(N)=O)C(=O)N[C@H]2C(=O)N[C@H]3C(=O)N[C@H](C(=O)N[C@H](C(=O)O)c4cc(O)cc(O)c4-c4cc3ccc4O)[C@H](O)c3ccc(c(Cl)c3)Oc3cc2cc(c3O[C@@H]2O[C@H](CO)[C@@H](O)[C@H](O)[C@H]2O[C@H]2C[C@](C)(N)[C@H](O)[C@H](C)O2)Oc2ccc(cc2Cl)[C@H]1O` [vancomycin]: the “intestinal colonization by SFB (qPCR of fecal samples)” value in assay [1] is “severely reduced”. Also, the “levels of IL-17a in the maternal plasma” value in the assay with IL-17a is “reduction in the levels of IL-17a”. For the same compound, the “cortical patches in adult offspring” value in assay [2] is on record as “failed to develop cortical patches”. In assay [3], the “proportion of Th17 cells in the small intestine” value is recorded as “decrease in the proportion of Th17 cells”. In addition, in the assay on MIA offspring, the “development of behavioral abnormalities in MIA offspring (USV, marble burying, open field center time, % interaction)” value is “prevented induction of behavioral abnormalities; also recorded: prevented development of all four behavioral abnormalities”. Moreover, the “susceptibility of SFB to vancomycin” value in assay [4] is given as “susceptible”.
